Measurements reported in patent US20250170120A1, “ALLOSTERIC STING MODULATORS AND METHODS OF USE” (THE BOARD OF REGENTS OF THE UNIVERSITY OF TEXAS SYSTEM, priority 2022, published 2025).

How the values were obtained:
human STING = human STING (Homo sapiens, UniProt Q86WV6); settings: cited from earlier work
STING [1] = molecular target: T1, STING (Homo sapiens, UniProt Q86WV6, G230A/H232R/R293Q/R71H); test: cGAMP dose-response IFN induction in the presence of increasing compound concentrations; format: cell-based; settings: for cGAMP induced IFN induction in the presence of increasing concentrations of compound: FIGS. 16A-16D
T1 construct: host or cells: THP-1 / THP1-Dual / THP1-Lucia ISG cells
Description: Compounds UT009, UT019, UT073 and UT122 were tested for their ability to interfere with cGAMP induced STING signaling. FIGS. 16A-16D show dose response plots of cGAMP induced IFN induction in the presence of increasing concentrations of each compound.
(§1) Compounds UT017, UT018, UT019 and UT0122 were tested for their ability to interfere with STING signaling. Interferon production in the presence of increasing concentrations of UT017, UT018, UT019 or UT0122 were measured in THP-1 cell lines under basal conditions. […] Compound UT0122 was further tested in THP1-Lucia™ ISG cells for interferon production at varying concentration, in the presence of an increasing dose of a STING agonist cGAMP.

STING [2] = molecular target: T1, STING; test: Interferon production in THP-1 cells under basal conditions (no external stimulation); format: cell-based; settings: for inhibition at 32 µM / Activity (inhibition under basal conditions): 32 μM compound, no external stimulation, THP-1 cells; for Comparative antagonistic effect among UT017, UT018, UT019, UT0122 / Relative induction of interferon production under basal conditions: THP-1 cell lines, basal conditions; for Relative induction of interferon production under basal conditions: increasing concentrations
From the text: (§2) Methods of measuring STING activity and by extension, the activity of the compounds discussed herein, are known in the art. As an example, the STING pathway activity may be evaluated using reporter cell lines where a reporter gene (i.e., luciferase, GFP) is expressed under direct or indirect control of interferon response elements. For example, in an exemplary embodiment, the STING pathway can be measured using THP1-Dual™ cells (InvivoGen) which express the Lucia gene (a secreted luciferase reporter gene) under the control of an ISG54 minimal promoter in conjunction with five IFN-stimulated response elements. The STING pathway, when activated, stimulates interferon release which, in this model, will increase luciferase expression in a detectable manner. When inhibited, interferon release will be decreased, reducing luciferase expression in a detectable manner. The compounds can optionally be tested in the presence of external stimulation (i.e., using cGAMP, a natural agonist of STING, or MSA-2).
as §1
The STING pathway activity was evaluated in THP1-Dual™ cells (Invivogen). 1.5×10^5 THP1-Dual™ cells were seeded in 96-well plates and treated with the test compound followed by cGAMP (100 uM) or MSA-2 (10 uM, Science 2020, 369, eaba6098) 2 hours later. After incubating at 37° C. for 16 hours, the luciferase activity was measured by QUANTI-Luc™ (Invivogen).

STING [3] = molecular target: T1, STING; test: STING pathway activity in THP1-Dual/THP-1 cells upon cGAMP or MSA-2 stimulation (luciferase/interferon readout); format: cell-based; settings: THP-1 cells; for inhibition at 10 µM: 10 μM compound, cGAMP (100 μM) or MSA-2 (10 μM) stimulation
From the text: as §2
The STING pathway activity was evaluated in THP1-Dual™ cells (Invivogen). […] After incubating at 37° C. for 16 hours, the luciferase activity was measured by QUANTI-Luc™ (Invivogen).

T1 sequence (Q86WV6 whole entry R71H/G230A/H232R/R293Q): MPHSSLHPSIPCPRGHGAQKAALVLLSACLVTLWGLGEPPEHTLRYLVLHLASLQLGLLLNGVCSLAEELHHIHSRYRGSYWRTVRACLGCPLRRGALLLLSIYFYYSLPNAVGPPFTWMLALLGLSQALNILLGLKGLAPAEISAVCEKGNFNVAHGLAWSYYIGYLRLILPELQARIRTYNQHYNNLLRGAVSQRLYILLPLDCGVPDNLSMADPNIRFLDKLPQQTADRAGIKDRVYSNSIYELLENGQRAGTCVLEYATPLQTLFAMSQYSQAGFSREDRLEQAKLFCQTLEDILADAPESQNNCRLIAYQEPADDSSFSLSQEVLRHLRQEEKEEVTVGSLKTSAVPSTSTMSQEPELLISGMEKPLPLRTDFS
human STING, sequence (Q86WV6 whole entry H232R): as the sequence (Q86WV6 whole entry R71H/G230A/H232R/R293Q) above, with H71R, A230G, Q293R counted along it

Question: For Cc1ccc2c(=O)c3cccc(CC(=O)O)c3oc2c1C [DMXAA, 5,6-dimethylxanthenone-4-acetic acid], which “Activation of human STING” value (human STING) is on record?
Answer: does not activate human STING

Question: Which “cGAMP induced IFN induction in the presence of increasing concentrations of compound” value (STING [1]) does the source give for CC1(C)C(=O)N(Cc2c(F)cccc2Cl)c2cc(CNS(=O)(=O)c3c(F)cc(F)cc3F)ccc21 [UT019, N-((1-(2-chloro-6-fluorobenzyl)-3,3-dimethyl-2-oxoindolin-6-yl)methyl)-2,4,6-trifluorobenzenesulfonamide] here?
Answer: dose-dependent suppression of interferon production

Question: And the inhibition at 32 µM (STING [2])?
Answer: > 50%

Question: What about the “Comparative antagonistic effect among UT017, UT018, UT019, UT0122” value (STING [2]) of the same compound?
Answer: highest antagonistic effect

Question: What about the “Relative induction of interferon production under basal conditions” value (STING [2]) of the same compound?
Answer: suppressed at the highest concentration tested

Question: Which “Activity (inhibition under basal conditions)” value (STING [2]) does the source give for C[C@@H](NC(=O)c1ccc2c(c1)N(Cc1c(F)cccc1Cl)C(=O)C2(C)C)c1c(F)cc(F)cc1F [UT065, (R)-1-(2-chloro-6-fluorobenzyl)-3,3-dimethyl-2-oxo-N-(1-(2,4,6-trifluorophenyl)ethyl) indoline-6-carboxamide] here?
Answer: D*

Question: With C[C@H](NC(=O)c1ccc2c(c1)N(Cc1c(F)cccc1Cl)C(=O)C2(C)C)c1c(F)cc(F)cc1F [UT066, (S)-1-(2-chloro-6-fluorobenzyl)-3,3-dimethyl-2-oxo-N-(1-(2,4,6-trifluorophenyl)ethyl) indoline-6-carboxamide] as the compound, how does the “Activity (inhibition under basal conditions)” value (STING [2]) read?
Answer: D*

Question: For CC1(C)C(=O)N(Cc2c(Cl)cccc2OCc2cc(F)cc(F)c2)c2cc(C(F)(F)F)ccc21 [UT071a, 1-(2-chloro-6-((3,5-difluorobenzyl)oxy)benzyl)-3,3-dimethyl-6-(trifluoromethyl)indolin-2-one], which inhibition at 32 µM (STING [2]) is on record?
Answer: < 50%

Question: Which inhibition at 32 µM (STING [2]) does the source give for CC1(C)C(=O)N(Cc2c(Cl)cccc2OCc2cc(F)cc(F)c2)c2cc(F)ccc21 [UT072, 1-(2-chloro-6-((3,5-difluorobenzyl)oxy)benzyl)-6-fluoro-3,3-dimethylindolin-2-one] here?
Answer: < 50%

Question: With CC1(C)C(=O)N(Cc2c(Cl)cccc2Oc2cc(F)cc(F)c2)c2cc(C(F)(F)F)ccc21 [UT073, 1-(2-chloro-6-(3,5-difluorophenoxy)benzyl)-3,3-dimethyl-6-(trifluoromethyl) indolin-2-one] as the compound, how does the “cGAMP induced IFN induction in the presence of increasing concentrations of compound” value (STING [1]) read?
Answer: dose-dependent suppression of interferon production

Question: What about the inhibition at 10 µM (STING [3]) of the same compound?
Answer: < 50%

Question: Which inhibition at 32 µM (STING [2]) does the source give for CC1(C)C(=O)N(Cc2c(Cl)cccc2Oc2cc(F)cc(F)c2)c2cc(F)ccc21 [UT074, 1-(2-chloro-6-(3,5-difluorophenoxy)benzyl)-6-fluoro-3,3-dimethylindolin-2-one] here?
Answer: < 50%

Question: With CC1(C)C(=O)N(Cc2c(F)cc(F)cc2F)c2cc(C(=O)NCc3cc4ccccc4o3)ccc21 [UT114, N-(benzofuran-2-ylmethyl)-3,3-dimethyl-2-oxo-1-(2,4,6-trifluorobenzyl)indoline-6-carboxamide] as the compound, how does the “Activity (inhibition under basal conditions)” value (STING [2]) read?
Answer: D*

Question: Which “Activity (inhibition under basal conditions)” value (STING [2]) does the source give for CC1(C)C(=O)N(Cc2c(F)cccc2F)c2cc(-c3ncc(-c4c(F)cc(F)cc4F)o3)ccc21 [UT115, 1-(2,6-difluorobenzyl)-3,3-dimethyl-6-(5-(2,4,6-trifluorophenyl)oxazol-2-yl)indolin-2-one] here?
Answer: D*

Question: Which “Activity (inhibition under basal conditions)” value (STING [2]) does the source give for CC1(C)C(=O)N(Cc2c(F)cccc2F)c2cc(-c3coc(-c4cccc(F)c4)n3)ccc21 [UT117, 1-(2,6-difluorobenzyl)-6-(2-(3-fluorophenyl)oxazol-4-yl)-3,3-dimethylindolin-2-one] here?
Answer: D*

Question: For CC1(C)C(=O)N(Cc2c(F)cccc2F)c2cc(-c3cn(-c4ccccc4)nn3)ccc21 [UT118, 1-(2,6-difluorobenzyl)-3,3-dimethyl-6-(1-phenyl-1H-1,2,3-triazol-4-yl)indolin-2-one], which “Activity (inhibition under basal conditions)” value (STING [2]) is on record?
Answer: D*

Question: Which “Activity (inhibition under basal conditions)” value (STING [2]) does the source give for CC1(C)C(=O)N(Cc2c(F)cc(F)cc2F)c2cc(C(=O)NCc3cc4cc(F)c(F)cc4o3)ccc21 [UT120, N-((5,6-difluorobenzofuran-2-yl)methyl)-3,3-dimethyl-2-oxo-1-(2,4,6-trifluorobenzyl) indoline-6-carboxamide] here?
Answer: D*

Question: With Cc1nn(C)c(CN2C(=O)C(C)(C)c3ccc(C(=O)NCc4cc5ccccc5s4)cc32)c1Br [UT121, N-(benzo[b]thiophen-2-ylmethyl)-1-((4-bromo-1,3-dimethyl-1H-pyrazol-5-yl)methyl)-3,3-dimethyl-2-oxoindoline-6-carboxamide] as the compound, how does the “Activity (inhibition under basal conditions)” value (STING [2]) read?
Answer: D*

Question: For Cc1nn(C)c(CN2C(=O)C(C)(C)c3ccc(C(=O)NCc4cc5ccccc5[nH]4)cc32)c1Br [UT122, N-((1H-indol-2-yl)methyl)-1-((4-bromo-1,3-dimethyl-1H-pyrazol-5-yl)methyl)-3,3-dimethyl-2-oxoindoline-6-carboxamide], which “cGAMP induced IFN induction in the presence of increasing concentrations of compound” value (STING [1]) is on record?
Answer: dose-dependent suppression of interferon production

Question: What about the “Induction of interferon by cGAMP” value (STING [1]; THP1-Lucia ISG cells, varying compound concentration, increasing dose of cGAMP) of the same compound?
Answer: suppressed in a dose-dependent manner

Question: And the “Comparative antagonistic effect among UT017, UT018, UT019, UT0122” value (STING [2])?
Answer: highest antagonistic effect

Question: And the “Relative induction of interferon production under basal conditions” value (STING [2])?
Answer: suppressed at the highest concentration tested

Question: What about the inhibition at 10 µM (STING [3]) of the same compound?
Answer: > 50%

Question: And the “Induction of interferon production in the presence of MSA2” value (STING [3]; 10 μM MSA2, increasing concentrations of compound)?
Answer: antagonistic activity with an inhibition of interferon production in a dose dependent manner

Question: And the “Interferon production in the presence of cGAMP” value (STING [3]; 100 μM cGAMP, increasing concentrations of compound)?
Answer: antagonistic activity with an inhibition of interferon production in a dose dependent manner

Question: For CC1(C)C(=O)N(Cc2c(Oc3cc(F)cc(F)c3)cccc2C(F)(F)F)c2ccc(C#N)cc21 [UT201, 1-(2-(3,5-difluorophenoxy)-6-(trifluoromethyl)benzyl)-3,3-dimethyl-2-oxoindoline-5-carbonitrile], which inhibition at 10 µM (STING [3]) is on record?
Answer: < 50%

Question: With CC1(C)C(=O)N(Cc2c(Oc3cc(F)cc(F)c3)cccc2C(F)(F)F)c2ccc(C(F)(F)F)cc21 [UT202, 1-(2-(3,5-difluorophenoxy)-6-(trifluoromethyl)benzyl)-3,3-dimethyl-5-(trifluoromethyl)indolin-2-one] as the compound, how does the inhibition at 10 µM (STING [3]) read?
Answer: < 50%

Question: Which inhibition at 10 µM (STING [3]) does the source give for CC1(C)C(=O)N(Cc2c(Oc3cc(F)cc(F)c3)cccc2C(F)(F)F)c2cc3c(cc21)OCO3 [UT203, 5-(2-(3,5-difluorophenoxy)-6-(trifluoromethyl)benzyl)-7,7-dimethyl-5,7-dihydro-6H-[1,3]dioxolo[4,5-f]indol-6-one] here?
Answer: > 50%
